Data on 1 molecule can be found in patent US10570176B2, “Anti-hepatitis B virus X protein polypeptide pharmaceutical” (priority 2015, dated 2020).

Experiment [1] has as its system HBV transgenic mice. The experiment in a line: Serum HBV DNA copy number in HBV transgenic mice, real-time PCR. The format is in vivo. As to conditions: for effective rate (serum HBV DNA): tail i.v. daily. The source says: HBV transgenic mice were purchased from Guangzhou Junketaite Pharmaceutical Technology Co., Ltd. The animal model is a 1.3 copies high expressing replicative form HBV whole-genome transgenic mice Tg (HBV 1.3 genome) Swb established using microinjection method by Guangzhou Junketaite Pharmaceutical Technology Co., Ltd. Serum HBsAg and HBeAg can be analyzed with common ELISA kit; serum HBV DNA of 93.93% positive transgenic mice is 10^4˜10^6 copy/mL; liver tissues in immunohistochemistry have HBsAg (cytoplasmic type) and HBcAg (karyotype) expression. […] This makes a good foundation for the transgenic model to be used in evaluating anti-HBV drugs.
Prepare D-TTK001 aseptically. Administer 2.5 mg/kg (10 mice) or 5.0 mg/kg (42 mice) based on mice weight through tail intravenous injection in a volume of 50 μL. Administer 50 μL of sterile PBS to blank control group (10 mice). Mice are 6-8 months old, half male and half female. Inject daily for 3 weeks (21 days in total). Take artery blood from mice tail before administration for future measurement of HBV DNA content in mice blood, record as T0 group. Take artery blood from mice tail after one week (T1+ group), two weeks (T2+ group), and three weeks (T3+ group) of administration. Take blood after one week of stopping administration (T4 group). Blood samples were standed in room temperature for 2-4 hours to prepare serum. Store samples in −80° C. refrigerator for future measurement of HBV DNA content in mice blood.
(i) Preparation of test samples: Take out the test samples from −80° C. refrigerator. Place it at room temperature for balancing. Take corresponding amount of reaction liquid, enzyme mix and internal standard by proportion (reaction liquid 38 μL per serving+enzyme mix 2 μL per serving+internal standard 0.2 μL per serving) according to numbers of test sample, negative control sample and reference sample, mix sufficiently as PCR-mix. Sample treatment (negative control, positive control quantitative reference and test samples are treated synchronously): Add 5 μL of cell nucleic releaser into each PCR reaction tube, then add 5 μL test sample into each tube, absorb back and forth for 3-5 times and mix; after more than 10 minutes interval, add 40 μL of PCR-mix into each tube, close the tubes with caps, centrifuge at 2000 rpm for 30 seconds.
Utilizing real time PCR HBV DNA assay kit manufactured by Sun Yat-sen University Daan Gene Co., Ltd. according to the manufacturer's specification as followed: Place PCR reaction tube into sample cell of PCR instrument, set negative control, positive control, quantitative references A-D and test sample in corresponding order, and then set sample name and concentration of quantitative reference. Selection of fluorescence detection channel: for example, in ABI 7300 instrument, i) select FAM channel (reporter: FAM, quencher: none) to detect HBV-DNA; ii) select HEX/VIC channel (reporter: HEX/VIC, quencher: none) to detect HBV-internal standard; iii) set passive reference as ROX.
Set analysis conditions: adjust start value, stop vale of Baseline and Value of Threshold according to analyzed image (arbitrary adjustable by user according to actual needs, start value can be 1˜10, stop value can be 5˜10, Value can be 0.01˜0.2) to optimize standard curve in “Std curve” window, i.e., correlation between −1.0˜−0.97. Select “Analyze” in “Analysis” menu for automatic result analysis. Record value (C) of unknown variable in “Tray” window. “C” indicates concentration or content of the sample.

The target of experiment [2] is T1, HBx protein (Hepatitis B virus genotype D subtype ayw, UniProt P03165).
T1 construct: made in house
T1 sequence (P03165 whole entry): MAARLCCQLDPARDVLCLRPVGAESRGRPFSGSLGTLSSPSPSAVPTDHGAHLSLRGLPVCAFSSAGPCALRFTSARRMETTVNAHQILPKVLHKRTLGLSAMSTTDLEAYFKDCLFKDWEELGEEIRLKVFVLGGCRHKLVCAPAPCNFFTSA
Description: In vitro binding to recombinantly expressed HBx protein, Biacore 3000. The procedure: The recombinant plasmid (pET-30a-HBx) expressing HBx gene was self-constructed and preserved (Zhang H, et al. J Biomed Biotechnol, doi:10.1155/2009/289068), and then expression and purification of HBx were conducted according to above reference for the measurement of in vitro binding ability. Biacore 3000 biomolecular interaction analyzing unit (manufactured by GE Healthcare) was utilized to measure in vitro binding ability of polypeptide D-TTK001 to recombinantly expressed HBx protein. Polypeptide at different concentrations were injected for 180 seconds at a rate of 30 μL/min. In dissociation stage, HBS-EP buffer was injected for 900 seconds at a rate of 30 μL/min, then at a rate of 30 μL/min, 2 shots of 1 mM NaOH were injected for 20 seconds to regenerate the chip. All signals were calibrated using channel 1 as the reference channel. Binding measurement was conducted twice, respectively, wherein in the first measurement, HBX was injected into the channel of the coupled polypeptide and the blank channel at concentrations of 0 nM, 10 nM, 50 nM, 100 nM, 500 nM and 600 nM, respectively. Binding time was 180 seconds and dissociation time was 400 seconds. On chip surface, 1 mM NaOH was injected for 20 seconds at a rate of 30 μL/min for regeneration. In the second measurement, HBX was injected into the channel of coupled polypeptide and the blank channel at concentrations of 0 nM, 10 nM, 50 nM, 588 nM, 1 μM, and 2 μM, respectively. Binding time was 180 seconds and dissociation time was 400 seconds. On chip surface, 1 mM NaOH was injected for 20 seconds at a rate of 30 μL/min for regeneration. Results were kinetically analyzed by BIA Evaluation Software.

Where “and” joins values, the source holds several entries; their conditions need not be identical. Identical values can stand only once. Marks after values point to notes of the source that are not given here. Non-standard residues stand in square brackets, D forms with d. Residues, ends and D or L forms follow the SMILES beside them.

Regarding `CSCC[C@@H](NC(=O)[C@H](NC(=O)[C@@H](C)NC(=O)[C@@H](CO)NC(=O)CN)C(C)C)C(=O)N[C@H](Cc1ccccc1)C(=O)N[C@H](CO)C(=O)N[C@H](CO)C(=O)N[C@H](CCCCN)C(=O)N[C@H](CCC(=O)O)C(=O)N[C@H](CCCNC(=N)N)C(=O)NCC(=O)O` [D-TTK001, Gly-D-Ser-D-Ala-D-Val-D-Met-D-Phe-D-Ser-D-Ser-D-Lys-D-Glu-D-Arg-Gly] (H-G[dS][dA][dV][dM][dF][dS][dS][dK][dE][dR]G-OH; N-terminus and C-terminus assumed), the “copy number of HBV DNA in serum” value in experiment [1] (2.5 mg/kg and 5.0 mg/kg, tail intravenous injection) is listed as “clearly reduced”. Besides, the “effective rate (serum HBV DNA)” value was 30% in experiment [1] (2.5 mg/kg group, from one week (T1+ group), 3 out of 10 mice) and 54.8% in experiment [1] (5.0 mg/kg group, 23 out of 42 mice). In addition, in experiment [1] (5.0 mg/kg group, 7 out of 23 mice), the “time dependent decreasing effective rate” value is given as 30.4%. Also, in experiment [1] (5.0 mg/kg group, 18 out of 39 mice), the “effective rate (serum HBV DNA) from one week (T1+ group)” value was 46.2%. The Kd in experiment [2] (KD, Biacore 3000, first and second measurement) is 29.9 nM and 40.3 nM; in experiment [2] (in vitro binding to HBx, in vitro binding analysis results) it was 35 nM. The “in vitro binding to HBx compared with L-polypeptide anti-HBxP1#” value in experiment [2] (comparison in words) is recorded as “lower than that of L-polypeptide anti-HBxP1#”.
